“Also recorded” adds a separate entry of the source.
What was measured:
[1] = tested on: VX-950-resistant variants of HCV; assay: IC50 shift of VX-950-resistant variants
[2] = Randomized, double-blind, placebo-controlled single-dose escalation study in healthy male volunteers; assay type: in vivo, human; conditions: single doses, 25 mg to 1250 mg
Method: Doses of 25 mg to 1250 mg were evaluated.

HCV genotype 1 = assay: Phase 1b trial, Study VX04-950-101; conditions: subjects infected with HCV genotype 1
[3] = Oral bioavailability of VX-950 (statement); conditions: in vivo
genotype 1 HCV = conditions: PROVE 1

CCC[C@H](NC(=O)[C@@H]1[C@H]2CCC[C@H]2CN1C(=O)[C@@H](NC(=O)[C@@H](NC(=O)c1cnccn1)C1CCCCC1)C(C)(C)C)C(=O)C(=O)NC1CC1 [VX-950]
increase in IC50 [1]: 7-20 fold | serious / severe adverse events [2]: No serious adverse events were reported; also recorded: No adverse events were considered to be severe | tolerability [2]: well tolerated at all dose levels | antiviral activity (HCV genotype 1): substantial antiviral activity | oral bioavailability [3]: orally bioavailable | pharmacokinetics of telaprevir among the different racial/ethnic groups (genotype 1 HCV): No differences were observed

Source: patent publication US20100226889A1, “HCV Combination Therapies” (priority 2007, published 2010)
